Several values for one entry are separate records, joined by “and”; a condition that tells them apart may be missing. Equal values may be shown once.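 Five concentrations, 48 hours, 96-well plates. GI50 is the concentration that inhibits growth by half. TGI marks complete inhibition of growth.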
system: RPMI-8226 leukemia; test: NCI-60 cell line screen, 48 h

Compound	TGI	GI50
O=C(Nc1ccc2ncccc2c1)Nc1ccc2ncccc2c1	> 100 µM	–
CC1(C)S[C@@H]2[C@H](NC(=O)C3(N)CCCCC3)C(=O)N2[C@H]1C(=O)O	> 100 µM	–
NC(=O)/C=C/C(=O)c1c(Cl)cccc1Cl	1.14 µM	0.264 µM
CC1(C)N=C(N)N=C(N)N1c1ccc(CCCCc2ccc(Cl)cc2S(=O)(=O)F)c(Cl)c1	13.2 µM	0.562 µM
O=C(Nc1ccc(Nc2ccncc2)cc1)c1ccc([N+](=O)[O-])cc1	17 µM	2.5 µM
C(=NCCN1CCOCC1)=NC1CCCCC1	> 100 µM	–
COc1ccccc1/C=N\N/C(N)=N\N=C\c1ccccc1OC	0.806 µM	0.281 µM
Oc1ccc(Nc2ncnc3c2sc2ncccc23)cc1	> 100 µM	0.0485 µM
COc1cccc(CC(C)=C(c2ccc(OCCN(C)C)cc2)c2ccc(OCCN(C)C)cc2)c1	2.24 µM	0.842 µM
COC(=O)COc1ccccc1/C=C1\N=C(c2ccccc2)N(c2cc(C(F)(F)F)ccc2Cl)C1=O	72.7 µM	24.9 µM
C=C1C(=O)OC2CC(C)C(C(CC(C)=O)OC(C)=O)=CCC12 (centres undefined)	21.6 µM	–
CC(=O)OC1COC(Oc2c(C)c3c4c(c2O)[C@@H](C)CC[C@@H]4[C@@H](C)C[C@H]3C=C(C)C)C(O)C1OC(C)=O (some centres undefined)	69.8 µM	9.02 µM
S=C(Nc1ccc(Cl)cc1)Nc1ccc(-c2nc3ccccc3s2)cc1	64.5 µM	20.9 µM
COC(=O)C[C@](O)(CCCC(C)(C)O)C(=O)O[C@@H]1C(OC)=C[C@]23CCCN2CCc2cc4c(cc2[C@H]13)OCO4	0.419 µM and 0.84 µM	0.0288 µM

system: HT29 colon; test: NCI-60 cell line screen, 48 h

Compound	GI50	TGI
COc1ccc(OC)c2c1[nH]c(=O)c1c3ccccc3cn21	0.813 µM	2.54 µM
COc1cccc2c1C(=O)c1c(O)c3c(c(O)c1C2=O)C[C@@](O)(C(=O)CO)C[C@@H]3OC1CC(N)CC(C)O1 (some centres undefined)	0.0296 µM	1.1 µM and 0.809 µM
CN(C)CCNC(=O)c1cccc2ccc(-c3ccc(O)cc3)nc12	–	14.5 µM and 17.2 µM
COc1cc(Nc2ncccc2C(=O)NCc2cn(Cc3cccc(Oc4ccccc4)c3)nn2)cc(OC)c1	3.88 µM	> 100 µM
COc1cccc(C2CC(C)(O)Oc3cc4c(cc32)OCO4)c1O (centres undefined)	–	50.6 µM
Cn1cc(C2=C(c3ccc(N)cc3)C(=O)NC2=O)c2ccccc21	12.5 µM	> 25 µM
Cc1cc(Cl)cc(OCCn2cc(F)cn2)c1-c1nc(N)nc2c1CN(C(=O)NCC(C)(F)F)C2	0.0355 µM	> 100 µM
COc1ccc(/C=C\[N+](=O)[O-])cc1OC	1.87 µM	5.87 µM
CCN(CC)CCC(CNc1ccnc2cc(Cl)ccc12)c1ccc(Cl)cc1 (centres undefined)	0.282 µM	1.49 µM
COc1cccc(F)c1C(=O)c1cnc(NC2CCN(S(C)(=O)=O)CC2)nc1N	2.54 µM	23.3 µM
COc1cc(OCc2cccc(-c3ccc(C(O)c4nccs4)cc3)c2C)cc(OC)c1C=O (centres undefined)	2.83 µM	13.6 µM
COC(=O)c1ccc2c(c1)nc(NC(=O)c1ccccc1)n2CCCc1ccccc1	6.92 µM	> 100 µM
O=C(O)COc1ccc2c(=O)c3sc4c(=O)c5ccccc5c(=O)c4c3c(=O)c2c1	22 µM	> 100 µM
O=C(Nc1ccc2ncccc2c1)Nc1ccc2ncccc2c1	–	> 100 µM
CC1(C)S[C@@H]2[C@H](NC(=O)C3(N)CCCCC3)C(=O)N2[C@H]1C(=O)O	–	> 100 µM
NC(=O)/C=C/C(=O)c1c(Cl)cccc1Cl	1.55 µM	> 100 µM
CC1(C)N=C(N)N=C(N)N1c1ccc(CCCCc2ccc(Cl)cc2S(=O)(=O)F)c(Cl)c1	0.374 µM	14.5 µM
O=C(Nc1ccc(Nc2ccncc2)cc1)c1ccc([N+](=O)[O-])cc1	3.61 µM	16.5 µM
C(=NCCN1CCOCC1)=NC1CCCCC1	–	> 100 µM
COc1ccccc1/C=N\N/C(N)=N\N=C\c1ccccc1OC	0.382 µM	> 55.8 µM
Oc1ccc(Nc2ncnc3c2sc2ncccc23)cc1	0.0496 µM	> 100 µM
COc1cccc(CC(C)=C(c2ccc(OCCN(C)C)cc2)c2ccc(OCCN(C)C)cc2)c1	0.706 µM	1.91 µM
COC(=O)COc1ccccc1/C=C1\N=C(c2ccccc2)N(c2cc(C(F)(F)F)ccc2Cl)C1=O	73.2 µM	> 100 µM
C=C1C(=O)OC2CC(C)C(C(CC(C)=O)OC(C)=O)=CCC12 (centres undefined)	–	22 µM
CC(=O)OC1COC(Oc2c(C)c3c4c(c2O)[C@@H](C)CC[C@@H]4[C@@H](C)C[C@H]3C=C(C)C)C(O)C1OC(C)=O (some centres undefined)	25.6 µM	74.4 µM
S=C(Nc1ccc(Cl)cc1)Nc1ccc(-c2nc3ccccc3s2)cc1	17.2 µM	39.2 µM
COC(=O)C[C@](O)(CCCC(C)(C)O)C(=O)O[C@@H]1C(OC)=C[C@]23CCCN2CCc2cc4c(cc2[C@H]13)OCO4	0.0183 µM	–

system: SF-268 CNS; test: NCI-60 cell line screen, 48 h

Compound	GI50	TGI
COc1ccc(OC)c2c1[nH]c(=O)c1c3ccccc3cn21	1.42 µM	3.04 µM
COc1cccc2c1C(=O)c1c(O)c3c(c(O)c1C2=O)C[C@@](O)(C(=O)CO)C[C@@H]3OC1CC(N)CC(C)O1 (some centres undefined)	0.0515 µM	0.461 µM and 0.937 µM
CN(C)CCNC(=O)c1cccc2ccc(-c3ccc(O)cc3)nc12	–	17.3 µM and 19.3 µM
COc1cc(Nc2ncccc2C(=O)NCc2cn(Cc3cccc(Oc4ccccc4)c3)nn2)cc(OC)c1	5.43 µM	> 100 µM
COc1cccc(C2CC(C)(O)Oc3cc4c(cc32)OCO4)c1O (centres undefined)	–	> 91.2 µM
Cn1cc(C2=C(c3ccc(N)cc3)C(=O)NC2=O)c2ccccc21	20.1 µM	> 25 µM
Cc1cc(Cl)cc(OCCn2cc(F)cn2)c1-c1nc(N)nc2c1CN(C(=O)NCC(C)(F)F)C2	> 55.4 µM	> 100 µM
COc1ccc(/C=C\[N+](=O)[O-])cc1OC	5.88 µM	20.5 µM
CCN(CC)CCC(CNc1ccnc2cc(Cl)ccc12)c1ccc(Cl)cc1 (centres undefined)	1.97 µM	4.61 µM
COc1cccc(F)c1C(=O)c1cnc(NC2CCN(S(C)(=O)=O)CC2)nc1N	5.96 µM	> 21.4 µM
COc1cc(OCc2cccc(-c3ccc(C(O)c4nccs4)cc3)c2C)cc(OC)c1C=O (centres undefined)	2.92 µM	12.3 µM
COC(=O)c1ccc2c(c1)nc(NC(=O)c1ccccc1)n2CCCc1ccccc1	3.93 µM	> 100 µM
O=C(O)COc1ccc2c(=O)c3sc4c(=O)c5ccccc5c(=O)c4c3c(=O)c2c1	14.8 µM	48.9 µM
O=C(Nc1ccc2ncccc2c1)Nc1ccc2ncccc2c1	–	> 100 µM
CC1(C)S[C@@H]2[C@H](NC(=O)C3(N)CCCCC3)C(=O)N2[C@H]1C(=O)O	–	> 100 µM
NC(=O)/C=C/C(=O)c1c(Cl)cccc1Cl	1.71 µM	3.21 µM
CC1(C)N=C(N)N=C(N)N1c1ccc(CCCCc2ccc(Cl)cc2S(=O)(=O)F)c(Cl)c1	0.493 µM	17.7 µM
O=C(Nc1ccc(Nc2ccncc2)cc1)c1ccc([N+](=O)[O-])cc1	6.79 µM	27.5 µM
C(=NCCN1CCOCC1)=NC1CCCCC1	–	> 100 µM
COc1ccccc1/C=N\N/C(N)=N\N=C\c1ccccc1OC	0.432 µM	26.9 µM
Oc1ccc(Nc2ncnc3c2sc2ncccc23)cc1	0.0407 µM	> 100 µM
COc1cccc(CC(C)=C(c2ccc(OCCN(C)C)cc2)c2ccc(OCCN(C)C)cc2)c1	4.03 µM	8.69 µM
COC(=O)COc1ccccc1/C=C1\N=C(c2ccccc2)N(c2cc(C(F)(F)F)ccc2Cl)C1=O	29.8 µM	> 100 µM
C=C1C(=O)OC2CC(C)C(C(CC(C)=O)OC(C)=O)=CCC12 (centres undefined)	–	74.5 µM
CC(=O)OC1COC(Oc2c(C)c3c4c(c2O)[C@@H](C)CC[C@@H]4[C@@H](C)C[C@H]3C=C(C)C)C(O)C1OC(C)=O (some centres undefined)	27.6 µM	> 100 µM
S=C(Nc1ccc(Cl)cc1)Nc1ccc(-c2nc3ccccc3s2)cc1	13.8 µM	32 µM
COC(=O)C[C@](O)(CCCC(C)(C)O)C(=O)O[C@@H]1C(OC)=C[C@]23CCCN2CCc2cc4c(cc2[C@H]13)OCO4	0.046 µM	0.99 µM and 0.446 µM

— PubChem BioAssay (NCI)
